Laboratory results taken from ChEMBL document CHEMBL4765295, “Synthesis, pharmacological profile and 2D-QSAR studies of curcumin-amino acid conjugates as potential drug candidates” (Eur J Med Chem, 2020).
Values joined by “and” are separate entries in the source; they are usually repeats but may differ in a detail not shown here. Identical values can stand only once.

Key:
[1] = Ulcerogenic activity in fasted albino mouse assessed as incidence of gastric ulceration at 10 mg/kg, po for 3 days (reference value: 0 %); format: toxicity, organism-based; details: in vivo, 72 h, time 3 day
Rattus norvegicus [2] = test: Antiinflammatory activity in Wistar rat model of carrageenan-induced paw edema assessed as reduction in thickness of paw edema at 10 mg/kg, ip pretreated for 1 hr followed by carrageenan challenge and measured after 1 hr (reference value: 2.41 +/-0.05 mm); format: functional; details: time 1 hr after carrageenan
Mus musculus [3] = test: Analgesic activity in albino mouse assessed as forepaw licking/jumping latency time at 10 mg/kg, ip measured after 30 mins by hot plate test (reference value: 5.02 +/- 0.09 sec); format: functional; details: 0.5 h
Rattus norvegicus [4] = test: Anti-inflammatory activity in Wistar rat assessed as inhibition of carrageenan-induced paw edema at 10 mg/kg, ip pretreated for 1 hr followed by carrageenan challenge and measured after 4 hr relative to indomethacin; format: functional; details: time 5 hrs
Rattus norvegicus [5] = test: Antiinflammatory activity in Wistar rat model of carrageenan-induced paw edema assessed as reduction in thickness of paw edema at 10 mg/kg, ip pretreated for 1 hr followed by carrageenan challenge and measured after 2 hrs (reference value: 2.06 +/-0.09 mm); format: functional; details: time 3 hrs
Candida albicans = test: Antifungal activity against Candida albicans incubated for 18 to 24 hrs by CLSI method; format: functional; details: time 18-24 hrs
Mus musculus [6] = test: Analgesic activity in albino mouse assessed as protection at 10 mg/kg, ip measured after 60 mins by hot plate test (reference value: 0 %); format: functional; details: 1 h
[7] = Ulcerogenic activity in fasted albino mouse assessed as ulcer index in gastric mucosa at 10 mg/kg, po for 3 days (reference value: 0); format: toxicity, organism-based; details: in vivo, 72 h, time 3 day
[8] = Ulcerogenic activity in fasted albino mouse assessed as average number of ulcers in gastric mucosa at 10 mg/kg, po for 3 days (reference value: 0); format: toxicity, organism-based; details: in vivo, 72 h, time 3 day
[9] = Ulcerogenic activity in fasted albino mouse assessed as average severity of ulcers in gastric mucosa at 10 mg/kg, po for 3 days (reference value: 0); format: toxicity, organism-based; details: in vivo, 72 h, time 3 day
Splenocyte [10] = test: Immunomodulatory activity in Swiss albino mouse splenocytes assessed as cell viability at 10 uM by measuring stimulation index incubated for 72 hrs in presence of mitogenic stimulus phytohaemagglutinin by MTT assay (reference value: 1.00 +/- 0.24); format: functional
Mus musculus [11] = test: Analgesic activity in albino mouse assessed as protection at 10 mg/kg, ip measured after 30 mins by hot plate test (reference value: 0 %); format: functional; details: 0.5 h
Splenocyte [12] = test: Immunomodulatory activity in Swiss albino mouse splenocytes assessed as cell viability at 10 uM by measuring inhibition of stimulation index incubated for 72 hrs in presence of mitogenic stimulus phytohaemagglutinin by MTT assay relative to indomethacin; format: functional; details: read-out: Activity
Rattus norvegicus [13] = test: Antiinflammatory activity in Wistar rat model of carrageenan-induced paw edema assessed as reduction in thickness of paw edema at 10 mg/kg, ip pretreated for 1 hr followed by carrageenan challenge and measured after 3 hrs (reference value: 1.79 +/-0.07 mm); format: functional; details: time 4 hrs
Peritoneal macrophage [14] = test: Antiinflammatory activity in […] mouse Peritoneal macrophages assessed as reduction in LPS-induced NO production by measuring reduction in stimulation index at 10 uM preincubated for 1 hr followed by LPS stimulation measured after 24 hrs by Griess method (reference value: 27.31 +/- 2.56 uM); format: functional; details: time 25 hrs
Mus musculus [15] = test: Analgesic activity in albino mouse assessed as protection at 10 mg/kg, ip measured after 120 mins by hot plate test relative to indomethacin; format: functional; details: 2 h
Mus musculus [16] = test: Analgesic activity in albino mouse assessed as protection at 10 mg/kg, ip measured after 90 mins by hot plate test (reference value: 0 %); format: functional; details: 1.5 h
Staphylococcus aureus = test: Antibacterial activity against Staphylococcus aureus ATCC 25923 incubated for 18 hrs by agar dilution method; format: functional
Rattus norvegicus [17] = test: Anti-inflammatory activity in Wistar rat assessed as inhibition of carrageenan-induced paw edema at 10 mg/kg, ip pretreated for 1 hr followed by carrageenan challenge and measured after 4 hr relative to control (reference value: 0.00 +/-0.4 %); format: functional; details: time 5 hrs
Rattus norvegicus [18] = test: Antiinflammatory activity in Wistar rat model of carrageenan-induced paw edema assessed as reduction in thickness of paw edema at 10 mg/kg, ip pretreated for 1 hr followed by carrageenan challenge and measured after 24 hrs (reference value: 0.83 +/-0.08 mm); format: functional; details: time 25 hrs
Rattus norvegicus [19] = test: Anti-inflammatory activity in Wistar rat assessed as inhibition of carrageenan-induced paw edema at 10 mg/kg, ip pretreated for 1 hr followed by carrageenan challenge and measured after 3 hr relative to control (reference value: 0.00 +/-0.1 %); format: functional; details: time 4 hrs
Rattus norvegicus [20] = test: Anti-inflammatory activity in Wistar rat assessed as inhibition of carrageenan-induced paw edema at 10 mg/kg, ip pretreated for 1 hr followed by carrageenan challenge and measured after 24 hr relative to control (reference value: 0.00 +/-0.3 %); format: functional; details: time 25 hrs
Mus musculus [21] = test: Analgesic activity in albino mouse assessed as forepaw licking/jumping latency time at 10 mg/kg, ip measured after 120 mins by hot plate test (reference value: 2.62 +/- 0.06 sec); format: functional; details: 2 h
Mus musculus [22] = test: Analgesic activity in albino mouse assessed as forepaw licking/jumping latency time at 10 mg/kg, ip measured after 90 mins by hot plate test (reference value: 2.72 +/- 0.01 sec); format: functional; details: 1.5 h
Rattus norvegicus [23] = test: Antiinflammatory activity in Wistar rat model of carrageenan-induced paw edema assessed as reduction in thickness of paw edema at 10 mg/kg, ip pretreated for 1 hr followed by carrageenan challenge and measured after 4 hrs (reference value: 1.40 +/-0.10 mm); format: functional; details: time 5 hrs
Pseudomonas aeruginosa = test: Antibacterial activity against Pseudomonas aeruginosa ATCC 27853 incubated for 18 hrs by agar dilution assay; format: functional
Mus musculus [24] = test: Analgesic activity in albino mouse assessed reduction in acetic acid-induced abdominal writhing by measuring writing reflex at 10 mg/kg, ip pretreated for 1 hr followed by acetic acid challenge and measured starting 5 mins post acetic acid challenge for 10 mins (reference value: 42.4 +/- 1.02); format: functional; details: time 75 min, 1.25 h
Mus musculus [25] = test: Analgesic activity in albino mouse assessed as protection at 10 mg/kg, ip measured after 120 mins by hot plate test (reference value: 0 %); format: functional; details: 2 h
[26] = Toxicity in albino mouse assessed as induction of toxic symptoms at 50 to 100 mg/kg, ip measured after 24 hrs; format: organism-based; details: in vivo, dose 50-100 mg/kg
Salmonella typhimurium = test: Antibacterial activity against Salmonella typhimurium ATCC 19430 incubated for 18 hrs by agar dilution assay; format: functional, Salmonella enterica subsp. enterica serovar Typhimurium; details: Salmonella enterica
Rattus norvegicus [27] = test: Anti-inflammatory activity in Wistar rat assessed as inhibition of carrageenan-induced paw edema at 10 mg/kg, ip pretreated for 1 hr followed by carrageenan challenge and measured after 1 hr relative to control (reference value: 0.00 +/-0.02 %); format: functional; details: time 2 hrs
Mus musculus [28] = test: Analgesic activity in albino mouse assessed as forepaw licking/jumping latency time at 10 mg/kg, ip measured after 60 mins by hot plate test (reference value: 3.42 +/- 0.03 sec); format: functional; details: 1 h
Peritoneal macrophage [29] = test: Antiinflammatory activity in […] mouse Peritoneal macrophages assessed as inhibition of LPS-induced NO production at 10 uM preincubated for 1 hr followed by LPS stimulation measured after 24 hrs by Griess method relative to control (reference value: 0.0 %); format: functional; set-up: scale not given: the % may be the effect or the level left; details: time 25 hrs
Streptococcus pyogenes = test: Antibacterial activity against Streptococcus pyogenes ATCC 19615 incubated for 18 hrs by agar dilution method; format: functional
Rattus norvegicus [30] = test: Anti-inflammatory activity in Wistar rat assessed as inhibition of carrageenan-induced paw edema at 10 mg/kg, ip pretreated for 1 hr followed by carrageenan challenge and measured after 2 hr relative to control (reference value: 0.00 +/-0.03 %); format: functional; details: time 3 hrs
Mus musculus [31] = test: Analgesic activity in albino mouse assessed protection against acetic acid-induced abdominal writhing at 10 mg/kg, ip pretreated for 1 hr followed by acetic acid challenge and measured starting 5 mins post acetic acid challenge for 10 mins relative to control (reference value: 0 %); format: functional; details: time 75 min, 1.25 h
Mus musculus [32] = test: Analgesic activity in albino mouse assessed protection against acetic acid-induced abdominal writhing at 10 mg/kg, ip pretreated for 1 hr followed by acetic acid challenge and measured starting 5 mins post acetic acid challenge for 10 mins relative to indomethacin; format: functional; details: time 75 min, 1.25 h

SMILES | Activity [1] [%] | Activity (Rattus norvegicus [2]) [mm] | Time (Mus musculus [3]) [s] | inhibition in vivo at 10 mg/kg (Rattus norvegicus [4]) [%] | Activity (Rattus norvegicus [5]) [mm] | MIC (Candida albicans) | Activity (Mus musculus [6]) [%] | UI [7] | Activity [8] | Activity [9] | Activity_index (Splenocyte [10]) | Activity (Mus musculus [11]) [%] | viability at 10 µM (Splenocyte [12]) [%] | Activity (Rattus norvegicus [13]) [mm] | Activity (Peritoneal macrophage [14]) [µM] | Activity (Mus musculus [15]) [%] | Activity (Mus musculus [16]) [%] | MIC (Staphylococcus aureus) | inhibition in vivo at 10 mg/kg (Rattus norvegicus [17]) [%] | Activity (Rattus norvegicus [18]) [mm] | also measured
COc1cc(/C=C/C(=O)/C=C(O)/C=C/c2ccc(OC(=O)[C@@H](CCSC)NC(=O)OCc3ccccc3)c(OC)c2)ccc1OC(=O)[C@@H](CCSC)NC(=O)OCc1ccccc1 | 0 | 0.51 | 5.48 | 108 | 0.41 | 0.125 µg/mL and 0.139 µM | 59.1 | 0 | 0 | 0 | 1.37 | 9.2 | 88.5 | 0.27 | 16.16 | 187.1 | 79.4 | 0.125 µg/mL and 0.139 µM | 94 | 0.08 | inhibition in vivo at 10 mg/kg (Rattus norvegicus [19]): 85%; inhibition in vivo at 10 mg/kg (Rattus norvegicus [20]): 90%; Time (Mus musculus [21]): 4.68 s; Time (Mus musculus [22]): 4.88 s; Activity (Rattus norvegicus [23]): 0.08 mm; MIC (Pseudomonas aeruginosa): 1 µg/mL and 1.11 µM; Activity (Mus musculus [24]): 34.8; Activity (Mus musculus [25]): 78.6%; Activity [26]: Non-Toxic; MIC (Salmonella typhimurium): 0.5 µg/mL and 0.556 µM; inhibition in vivo at 10 mg/kg (Rattus norvegicus [27]): 79%; Time (Mus musculus [28]): 5.44 s; Activity (Peritoneal macrophage [29]): 40.84%; MIC (Streptococcus pyogenes): 0.125 µg/mL and 0.139 µM; inhibition in vivo at 10 mg/kg (Rattus norvegicus [30]): 80%; Activity (Mus musculus [31]): 17.9%; Activity (Mus musculus [32]): 29.1%
COc1cc(/C=C/C(=O)/C=C(O)/C=C/c2ccc(OC(=O)[C@H](CCSC)NC(=O)OCc3ccccc3)c(OC)c2)ccc1OC(=O)[C@H](CCSC)NC(=O)OCc1ccccc1 | 3.33 | 0.58 | 5.32 | 101 | 0.41 | 2 µg/mL and 2.23 µM | 15.2 | 3.99 | 0.33 | 0.33 | 1.22 | 6 | 99.3 | 0.25 | 15.17 | 51 | 34.6 | 0.125 µg/mL and 0.139 µM | 88 | 0.05 | inhibition in vivo at 10 mg/kg (Rattus norvegicus [19]): 86%; inhibition in vivo at 10 mg/kg (Rattus norvegicus [20]): 94%; Time (Mus musculus [21]): 3.18 s; Time (Mus musculus [22]): 3.66 s; Activity (Rattus norvegicus [23]): 0.17 mm; MIC (Pseudomonas aeruginosa): 0.125 µg/mL and 0.139 µM; Activity (Mus musculus [24]): 16.5; Activity (Mus musculus [25]): 21.4%; Activity [26]: Non-Toxic; MIC (Salmonella typhimurium): 0.125 µg/mL and 0.139 µM; inhibition in vivo at 10 mg/kg (Rattus norvegicus [27]): 76%; Time (Mus musculus [28]): 3.94 s; Activity (Peritoneal macrophage [29]): 44.44%; MIC (Streptococcus pyogenes): 0.125 µg/mL and 0.139 µM; inhibition in vivo at 10 mg/kg (Rattus norvegicus [30]): 80%; Activity (Mus musculus [31]): 61.1%; Activity (Mus musculus [32]): 9.2%
